# Patent publication US7994334B2, “Fungicide pyridinyloxy substituted phenylamidine derivatives” (Bayer Cropscience AG, priority 2005, dated 2011)
# Assay: logP by HPLC on reversed-phase column (C 18), EEC Directive 79/831 Annex V.A8
# Type: physicochemical
# Conditions: for logPa: C 18, 40° C., 0.1% aqueous formic acid and acetonitrile; for log P (pH 2.3): pH 2.3, C 18
# Description: Temperature: 40° C.; Mobile phases: 0.1% aqueous formic acid and acetonitrile; linear gradient from 10% acetonitrile to 90% acetonitrile.
Structure (SMILES),logPa,log P (pH 2.3)
Cc1cc(Oc2ncc(C(F)(F)F)cc2Cl)c(C)cc1N=CN(C)C(C)C [Example 43],2.29,
Cc1cc(Oc2ccc(C#N)cn2)c(C)cc1N=CN1CCCC1 [Example 39],1.46,
Cc1cc(Oc2cc(C(F)(F)F)cc(Cl)n2)ccc1N=CN(C)C(C)C [Example 7],2.22,
CCN(C)C=Nc1cc(C)c(Oc2cccc(Cl)n2)cc1C [Example 26],1.78,
CCN(C)C=Nc1ccc(Oc2ccc(Cl)cn2)cc1C [Example 5],1.58,
CCN(C)C=Nc1cc(C)c(Oc2cc(Cl)cc(C(C)C)n2)cc1C [Example 33],2.18,
CCCN(C)C=Nc1cc(C)c(Oc2ccc(C)c(Cl)n2)cc1C [Example 51],2.17,
CCN(C)C=Nc1cc(C)c(Oc2ccc(Cl)cn2)cc1C [Example 8],1.84,
CCCN(C)C=Nc1cc(C)c(Oc2cc(Cl)cc(CC)n2)cc1C [Example 42],2.00,
"CCc1nccc(Oc2cc(C)c(N)cc2C)c1Cl [4-(2-Ethyl-3-chloropyridyl-4-oxy)-2,5-xylidine]",,1.66
Cc1cc(Oc2cccc(Cl)n2)c(C)cc1N=CN1CCCC1 [Example 46],1.81,
CCN(C)C=Nc1cc(C)c(Oc2ccc(I)cn2)cc1C [Example 14],2.10,
Cc1cc(Oc2ccc(C#N)cn2)c(C)cc1N=CN1CCCCC1 [Example 38],1.58,
CCN(C)C=Nc1cc(C)c(Oc2ncc(Cl)cc2Cl)cc1C [Example 28],2.00,
CCN(C)C=Nc1cc(C)c(Oc2cc(C#N)ccn2)cc1C [Example 31],1.42,
CCN(C)C=Nc1cc(C(C)(C)C)c(Oc2cc(C(F)(F)F)cc(Cl)n2)cc1C [Example 22],2.83,
Cc1cc(Oc2cc(C(F)(F)F)cc(Cl)n2)c(C(C)(C)C)cc1N=CN(C)C(C)C [Example 20],3.17,
Cc1cc(Oc2ncc(Cl)cc2Cl)c(C)cc1N=CN(C)C(C)C [Example 32],2.24,
CCN(C)C=Nc1cc(C)c(Oc2ccc(C#N)cn2)cc1C [Example 35],1.47,
CCN(C)C=Nc1cc(C)c(Oc2cccc(-c3ccc(Cl)cc3)n2)cc1C [Example 45],2.66,
CCc1cc(Cl)cc(Oc2cc(C)c(N=CN3CCCCC3)cc2C)n1 [Example 40],2.04,
CCN(C)C=Nc1cc(C)c(Oc2ccc(C(F)(F)F)c(Cl)n2)cc1C [Example 6],2.36,
CCN(C=Nc1cc(C)c(Oc2cc(C(F)(F)F)cc(Cl)n2)cc1C)CC [Example 18],2.59,
CCN(C)C=Nc1cc(C(C)C)c(Oc2cc(C(F)(F)F)cc(Cl)n2)cc1C [Example 24],2.87,
CCN(C)C=Nc1cc(C)c(Oc2cc(C(F)(F)F)ccn2)cc1C [Example 27],1.96,
CCN(C)C=Nc1ccc(Oc2cc(C(F)(F)F)cc(Cl)n2)cc1C [Example 4],2.20,
"Cc1cc([N+](=O)[O-])c(C)cc1Oc1cncc(Cl)c1 [4-(3-chlorpyridyl-5-oxy)-2,5-dimethylnitrobenzene]",,3.61

Structure (SMILES),logPa,log P (pH 2.3)
CCN(C)C=Nc1ccc(Oc2cc(-c3ccccc3Cl)c(C)cn2)cc1C [Example 16],2.39,
CCCN(C)C=Nc1cc(C)c(Oc2ncc(Cl)cc2Cl)cc1C [Example 29],2.22,
CCN(C)C=Nc1ccc(Oc2ncc(C(F)(F)F)cc2Cl)cc1C [Example 2],2.21,
"Cc1cc(Oc2cncc(Cl)c2)c(C)cc1N [4-(3-chlorpyridyl-5-oxy)-2,5-xylidine]",,1.83
CCN(C)C=Nc1cc(C)c(Oc2cc(Cl)cc(C)n2)cc1C [Example 23],1.58,
CCN(C)C=Nc1cc(C)c(Oc2ccc(C(F)(F)F)cn2)cc1C [Example 10],1.86,
CCN(C)C=Nc1ccc(Oc2ccc(C(F)(F)F)cn2)cc1C [Example 9],1.79,
CCN(C)C=Nc1ccc(Oc2ccc(I)cn2)cc1C [Example 17],1.87,
Cc1cc(Oc2cccc(Cl)n2)c(C)cc1N=CN1CCCCC1 [Example 47],1.96,
CCN(C)C=Nc1cc(C)c(Oc2ccc(C(F)(F)F)c(Cl)n2)cc1C [Example 11],2.11,
"CCN(C)C=Nc1cc(C)c(Oc2cc(C(F)(F)F)cc(Cl)n2)cc1C [Example 1, N-Ethyl-N-methyl-N′-[4-(2-chlor-4-trifluormethylpyridyl-6-oxy)-2,5-xylyl]form-amidine]",,2.39
Cc1cc(Oc2ccc(C(F)(F)F)c(Cl)n2)c(C)cc1N=CN(C)C(C)C [Example 13],2.51,
CCCN(C)C=Nc1cc(C)c(Oc2ccc(C#N)cn2)cc1C [Example 36],1.63,
CCN(C)C=Nc1cc(C)c(Oc2ncc(C(F)(F)F)cc2Cl)cc1C [Example 44],2.15,
Cc1cc(Oc2cc(C(F)(F)F)cc(Cl)n2)c(C(C)C)cc1N=CN(C)C(C)C [Example 21],2.97,
CCCc1cc(CCC)nc(Oc2cc(C)c(N=CN(C)CC)cc2C)c1 [Example 30],2.97,
C=CCN(C)C=Nc1cc(C)c(Oc2ccc(C#N)cn2)cc1C [Example 37],1.56,
Cc1cc(Oc2cc(Cl)cc(C(C)C)n2)c(C)cc1N=CN(C)C(C)C [Example 34],2.34,
CCc1cc(Cl)cc(Oc2cc(C)c(N=CN(C)CC)cc2C)n1 [Example 48],1.98,
Cc1cc(Oc2cc(C(F)(F)F)cc(Cl)n2)c(C)cc1N=CN(C)C(C)C [Example 12],2.52,
CCN(C)C=Nc1cc(C)c(Oc2cc(C(F)(F)F)cc(C)n2)cc1C [Example 25],2.19,
CCCN(C)C=Nc1cc(C)c(Oc2cc(C(F)(F)F)cc(Cl)n2)cc1C [Example 19],2.66,
CCN(C)C=Nc1cc(C)c(Oc2ccc(C)c(Cl)n2)cc1C [Example 49],2.01,
Cc1cc(Oc2ccc(C)c(Cl)n2)c(C)cc1N=CN1CCCCC1 [Example 50],2.21,
CCN(C)C=Nc1cc(C)c(Oc2cc(-c3ccccc3Cl)c(C)cn2)cc1C [Example 15],2.58,
CCc1cc(Cl)cc(Oc2cc(C)c(N=CN3CCCC3)cc2C)n1 [Example 41],1.95,
CCN(C)C=Nc1ccc(Oc2cc(Cl)ccn2)cc1C [Example 3],1.50,

# Continued, values first:
logPa,log P (pH 2.3),Structure (SMILES)
2.48,,CCCN(C)C=Nc1cc(C)c(Oc2cc(C(F)(F)F)c(F)c(F)n2)cc1C [Example 63]
1.56,,CCc1nccc(Oc2cc(C)c(N=CN3CCCCC3)cc2C)c1Cl [Example 75]
1.74,,C=CCN(C)C=Nc1cc(C)c(Oc2ccnc(Cl)c2)cc1C [Example 81]
,1.47,"CCc1nccc(Oc2cc(C)c(N=CN(C)CC)cc2C)c1Cl [Example 68, N-Ethyl-N-methyl-N′-[4-(2-ethyl-3-chloropyridyl-4-oxy)-2,5-xylyl]form-amidine]"
1.66,,Cc1cc(Oc2ccnc(Cl)c2)c(C)cc1N=CN1CCCCC1 [Example 70]
1.45,,CCN(C)C=Nc1cc(C)c(Oc2ccnc(Cl)c2)cc1C [Example 69]
2.31,,CCN(C)C=Nc1cc(C)c(Oc2cc(C(F)(F)F)c(F)c(F)n2)cc1C [Example 62]
1.56,,CCCN(C)C=Nc1cc(C)c(Oc2ccnc(Cl)c2)cc1C [Example 72]
1.56,,CCN(C)C=Nc1cc(C)c(Oc2cccnc2C)cc1C [Example 66]
1.98,,CCN(C)C=Nc1cc(C)c(Oc2cccc(C(F)(F)F)n2)cc1C [Example 61]
1.75,,CCN(C)C=Nc1cc(C)c(Oc2ccnc(C(F)(F)F)c2)cc1C [Example 77]
2.05,,Cc1cc(Oc2ccc(C)c(Cl)n2)c(C)cc1N=CN1CCCC1 [Example 52]
1.90,,Cc1cc(Oc2cccc(Br)n2)c(C)cc1N=CN1CCCC1 [Example 60]
1.78,,Cc1cc(Oc2ccnc(C(F)(F)F)c2)c(C)cc1N=CN1CCCCC1 [Example 79]
1.69,,Cc1cc(Oc2ccnc(C(F)(F)F)c2)c(C)cc1N=CN1CCCC1 [Example 80]
1.75,,CCN(C)C=Nc1cc(C)c(Oc2cc(Cl)ccn2)cc1C [Example 56]
1.52,,Cc1cc(Oc2ccnc(Cl)c2)c(C)cc1N=CN1CCCC1 [Example 71]
2.35,,CCCN(C)C=Nc1cc(C)c(Oc2cc(Cl)cc(C(C)C)n2)cc1C [Example 54]
1.59,,CCCN(C)C=Nc1cc(C)c(Oc2ccnc(CC)c2Cl)cc1C [Example 74]
0.60,,CCN(C)C=Nc1cc(C)c(Oc2ccc(C)nc2)cc1C [Example 65]
1.89,,CCN(C)C=Nc1cc(C)c(Oc2cccc(Br)n2)cc1C [Example 57]
,1.70,"CCN(C)C=Nc1cc(C)c(Oc2cncc(Cl)c2)cc1C [Example 64, N-Ethyl-N-methyl-N′-[4-(3-chlorpyridyl-5-oxy)-2,5-xylyl]formamidine]"
2.06,,Cc1cc(Oc2cccc(Br)n2)c(C)cc1N=CN1CCCCC1 [Example 59]
1.75,,CCCN(C)C=Nc1cc(C)c(Oc2ccnc(C(F)(F)F)c2)cc1C [Example 78]
2.22,,Cc1cc(Oc2cc(Cl)cc(C(C)C)n2)c(C)cc1N=CN1CCCC1 [Example 55]
1.43,,CCc1nccc(Oc2cc(C)c(N=CN3CCCC3)cc2C)c1Cl [Example 76]
2.34,,Cc1cc(Oc2cc(Cl)cc(C(C)C)n2)c(C)cc1N=CN1CCCCC1 [Example 53]
2.04,,CCCN(C)C=Nc1cc(C)c(Oc2cccc(Br)n2)cc1C [Example 58]
1.82,,CCN(C)C=Nc1cc(C)c(Oc2cncc(Cl)c2)cc1C [Example 67]
1.51,,C=CCN(C)C=Nc1cc(C)c(Oc2ccnc(CC)c2Cl)cc1C [Example 73]
